Data from the NIST ThermoML archive (doi:10.1021/je301284x).
± gives the expanded uncertainty stated by the source.

Tests used:
[1] = for mass density / electrical conductivity / viscosity: 101.33 kPa, Liquid; for mass density: Vibrating tube method; for viscosity: Concentric cylinders viscometry; for Normal melting temperature: Crystal; for Normal melting temperature / Glass transition temperature: DTA
[2] = Molar enthalpy of transition or fusion; details: Crystal; DSC

| Compound | mass density ([1]; 293.15 K) | mass density ([1]; 298.15 K) | electrical conductivity ([1]; 303.15 K) | viscosity ([1]; 303.15 K) | mass density ([1]; 303.15 K) | mass density ([1]; 308.15 K) | mass density ([1]; 313.15 K) | electrical conductivity ([1]; 323.15 K) | viscosity ([1]; 323.15 K) | electrical conductivity ([1]; 343.15 K) | viscosity ([1]; 343.15 K) | electrical conductivity ([1]; 363.15 K) | viscosity ([1]; 363.15 K) | electrical conductivity ([1]; 383.15 K) | viscosity ([1]; 383.15 K) | electrical conductivity ([1]; 403.15 K) | electrical conductivity ([1]; 423.15 K) | electrical conductivity ([1]; 443.15 K) | Normal melting temperature [1] | Molar enthalpy of transition or fusion [2] | further results |
| --- | --- | --- | --- | --- | --- | --- | --- | --- | --- | --- | --- | --- | --- | --- | --- | --- | --- | --- | --- | --- | --- |
| C=CC[NH+](CC)CC.O=S(=O)([O-])C(F)(F)F [N,N-diethylprop-2-en-1-aminium trifluoromethanesulfonate] | 1263 ± 26 kg/m3 | 1255 ± 26 kg/m3 | 0.419 ± 0.008 S/m | 51 ± 1.7 mPa·s | 1247 ± 26 kg/m3 | 1240 ± 26 kg/m3 | 1232 ± 26 kg/m3 | 0.785 ± 0.016 S/m | 25.5 ± 0.8 mPa·s | 1.26 ± 0.03 S/m | 14.9 ± 0.5 mPa·s | 1.81 ± 0.04 S/m | 9.64 ± 0.31 mPa·s | 2.43 ± 0.05 S/m | 6.7 ± 0.22 mPa·s | 3.17 ± 0.06 S/m | 3.91 ± 0.08 S/m | 4.71 ± 0.09 S/m | -14.00 ± 1 °C | 5.02 ± 0.478 kcal/mol | mass density ([1]; 288.15 K): 1270 ± 27 kg/m3; viscosity ([1]; 403.15 K): 4.94 ± 0.16 mPa·s; viscosity ([1]; 423.15 K): 3.87 ± 0.13 mPa·s; Glass transition temperature [1]: -99.00 ± 6 °C |
| CCC[NH+](CC)CC.O=S(=O)([O-])C(F)(F)F [N,N-diethylpropan-1-aminium trifluoromethanesulfonate] | 1229 ± 26 kg/m3 | 1222 ± 26 kg/m3 | 0.384 ± 0.008 S/m | 54.3 ± 1.8 mPa·s | 1215 ± 25 kg/m3 | 1208 ± 25 kg/m3 | 1201 ± 25 kg/m3 | 0.71 ± 0.014 S/m | 26.8 ± 0.9 mPa·s | 1.13 ± 0.02 S/m | 15.3 ± 0.5 mPa·s | 1.71 ± 0.03 S/m | 9.76 ± 0.32 mPa·s | 2.22 ± 0.04 S/m | 6.71 ± 0.22 mPa·s | 2.88 ± 0.06 S/m | 3.57 ± 0.07 S/m | 4.31 ± 0.09 S/m | -14.00 ± 1 °C | 5.02 ± 0.478 kcal/mol | mass density ([1]; 288.15 K): 1237 ± 26 kg/m3; viscosity ([1]; 403.15 K): 4.87 ± 0.16 mPa·s; viscosity ([1]; 423.15 K): 3.73 ± 0.12 mPa·s |
| C=CC[NH+](C)CC=C.O=S(=O)([O-])C(F)(F)F | 1261 ± 26 kg/m3 | 1253 ± 26 kg/m3 | 0.469 ± 0.009 S/m | 38.5 ± 1.3 mPa·s | 1246 ± 26 kg/m3 | 1239 ± 26 kg/m3 | 1231 ± 26 kg/m3 | 0.893 ± 0.018 S/m | 19.7 ± 0.6 mPa·s | 1.43 ± 0.03 S/m | 11.6 ± 0.4 mPa·s | 2.06 ± 0.04 S/m | 7.61 ± 0.25 mPa·s | 2.74 ± 0.06 S/m | 5.39 ± 0.18 mPa·s | 3.54 ± 0.07 S/m | 4.39 ± 0.09 S/m | 5.21 ± 0.1 S/m | -19.00 ± 1 °C | 2.63 ± 0.239 kcal/mol | mass density ([1]; 288.15 K): 1268 ± 27 kg/m3; Glass transition temperature [1]: -88.00 ± 5 °C |

Now from value to compound, other results behind:

| mass density ([1]; 293.15 K) | mass density ([1]; 298.15 K) | electrical conductivity ([1]; 303.15 K) | viscosity ([1]; 303.15 K) | mass density ([1]; 303.15 K) | mass density ([1]; 308.15 K) | mass density ([1]; 313.15 K) | electrical conductivity ([1]; 323.15 K) | viscosity ([1]; 323.15 K) | electrical conductivity ([1]; 343.15 K) | viscosity ([1]; 343.15 K) | electrical conductivity ([1]; 363.15 K) | viscosity ([1]; 363.15 K) | electrical conductivity ([1]; 383.15 K) | viscosity ([1]; 383.15 K) | electrical conductivity ([1]; 403.15 K) | electrical conductivity ([1]; 423.15 K) | electrical conductivity ([1]; 443.15 K) | Normal melting temperature [1] | Molar enthalpy of transition or fusion [2] | Compound | further results |
| --- | --- | --- | --- | --- | --- | --- | --- | --- | --- | --- | --- | --- | --- | --- | --- | --- | --- | --- | --- | --- | --- |
| 1292 ± 27 kg/m3 | 1284 ± 27 kg/m3 | 0.833 ± 0.017 S/m | 36.9 ± 1.2 mPa·s | 1277 ± 27 kg/m3 | 1270 ± 27 kg/m3 | 1262 ± 26 kg/m3 | 1.45 ± 0.03 S/m | 19.4 ± 0.6 mPa·s | 2.15 ± 0.04 S/m | 12.1 ± 0.4 mPa·s | 3.15 ± 0.06 S/m | 8.13 ± 0.26 mPa·s | 3.91 ± 0.08 S/m | 5.82 ± 0.19 mPa·s | 4.73 ± 0.09 S/m | 5.46 ± 0.11 S/m | 5.97 ± 0.12 S/m | -6.00 ± 1 °C | 3.82 ± 0.478 kcal/mol | CC[NH+](C)CC.O=S(=O)([O-])C(F)(F)F [diethylmethylammonium trifluoromethanesulfonate] | mass density ([1]; 288.15 K): 1299 ± 27 kg/m3; viscosity ([1]; 403.15 K): 4.41 ± 0.14 mPa·s; viscosity ([1]; 423.15 K): 3.48 ± 0.11 mPa·s |
| 1311 ± 28 kg/m3 | 1303 ± 27 kg/m3 | 0.968 ± 0.019 S/m | 28.8 ± 0.9 mPa·s | 1295 ± 27 kg/m3 | 1288 ± 27 kg/m3 | 1280 ± 27 kg/m3 | 1.74 ± 0.04 S/m | 16.4 ± 0.5 mPa·s | 2.65 ± 0.05 S/m | 10.4 ± 0.3 mPa·s | 3.73 ± 0.07 S/m | 7.11 ± 0.23 mPa·s | 4.92 ± 0.1 S/m | 5.18 ± 0.17 mPa·s | 6.19 ± 0.12 S/m | 7.48 ± 0.15 S/m | 8.82 ± 0.18 S/m | 16.00 ± 1 °C | 5.02 ± 0.478 kcal/mol | C=CC[NH+](C)C.O=S(=O)([O-])C(F)(F)F [N,N-dimethylprop-2-en-1-aminium trifluoromethanesulfonate] | mass density ([1]; 288.15 K): 1318 ± 28 kg/m3; viscosity ([1]; 403.15 K): 3.95 ± 0.13 mPa·s; viscosity ([1]; 423.15 K): 3.17 ± 0.1 mPa·s |
| 1218 ± 25 kg/m3 | 1211 ± 25 kg/m3 | 0.415 ± 0.008 S/m | 48.7 ± 1.6 mPa·s | 1203 ± 25 kg/m3 | 1196 ± 25 kg/m3 | 1189 ± 25 kg/m3 | 0.772 ± 0.015 S/m | 23.9 ± 0.8 mPa·s | 1.23 ± 0.03 S/m | 13.6 ± 0.4 mPa·s | 1.81 ± 0.04 S/m | 8.63 ± 0.28 mPa·s | 2.48 ± 0.05 S/m | 5.96 ± 0.19 mPa·s | 3.18 ± 0.06 S/m | 4.04 ± 0.08 S/m | 4.88 ± 0.1 S/m | 17.00 ± 1 °C | 3.35 ± 0.478 kcal/mol | CCC[NH+](C)CCC.O=S(=O)([O-])C(F)(F)F [N-methyl-N-propylpropan-1-aminium trifluoromethanesulfonate] | viscosity ([1]; 403.15 K): 4.4 ± 0.14 mPa·s; viscosity ([1]; 423.15 K): 3.44 ± 0.11 mPa·s |
| 1284 ± 27 kg/m3 | 1276 ± 27 kg/m3 | 0.901 ± 0.018 S/m | 33.2 ± 1.1 mPa·s | 1269 ± 27 kg/m3 | 1262 ± 26 kg/m3 | 1254 ± 26 kg/m3 | 1.57 ± 0.03 S/m | 18 ± 0.6 mPa·s | 2.39 ± 0.05 S/m | 11 ± 0.4 mPa·s | 3.25 ± 0.07 S/m | 7.42 ± 0.24 mPa·s | 4.29 ± 0.09 S/m | 5.32 ± 0.17 mPa·s | 5.3 ± 0.11 S/m | 6.4 ± 0.13 S/m | 7.68 ± 0.15 S/m | 20.00 ± 1 °C | 4.78 ± 0.478 kcal/mol | CCC[NH+](C)C.O=S(=O)([O-])C(F)(F)F [N,N-dimethylpropan-1-aminium trifluoromethanesulfonate] | mass density ([1]; 288.15 K): 1291 ± 27 kg/m3; viscosity ([1]; 403.15 K): 4.04 ± 0.13 mPa·s; viscosity ([1]; 423.15 K): 3.19 ± 0.1 mPa·s |
